Assay [1] deals with NCI-H460. Kind of assay: Viability assay with NCI-H460 (CellTiter-Glo cytotoxicity assay, 72 h). It is filed as cell-based. Conditions: NCI-H460 cell line, 72 h after compounds addition. The protocol:
(§1) NCI-H460 (Epithelial lung tissue; carcinoma; large cell lung cancer) were cultured in RPMI Medium 1640 (Invitrogen-22400105) supplemented with 10% fetal bovine serum (FBS; Invitrogen-10099141). All the cell lines were maintained in a humidified incubator at 37° C. with 5% CO2. Cell culture media and supplements were purchased from Invitrogen, and tissue culture flasks were purchased from Corning, 96-well plates were purchased from Greiner. CellTiter-Glo Luminescent Cell Viability Assay kits were purchased from Promega (Promega-G7573), cells counter Vi-Cell was purchased from Beckman, D300e digital dispenser was purchased from Tecan, detection instrument Envision was purchased from PerkinElmer.
(§2) Paclitaxel was purchased from SELLECK, test compounds, such as any one of the compounds disclosed herein, attained solubility in DMSO and when diluted into culture media. DMSO, solutions containing the test compounds, and culture media were warmed to 37° C. or room temperature for the solution preparation and dilutions.
(§3) NCI-H460 Cell line were seeded in 96-well plates (1200/well) and allowed to adhere to overnight (100 uL/well), for drug treatments with 2 fold dilution, 9 dose points, triplicates or vehicle control, compound stock solutions were prepared in DMSO and use D300e digital dispenser to add compounds to the wells to give the indicated final drug concentrations. Final DMSO concentration was 0.5%. Cellular ATP concentrations were assessed by using the CellTiter-Glo Cell Viability Assay as per the manufacturer's instructions 72 h after compounds addition. Additional cells lines were assayed with any one of the compounds disclosed herein according to the procedures described for the viability assay with NCI-H460.
(In general: Cellular ATP, detected with luciferase, serves as a proxy for viable cell number.)

Assay [2] concerns MIA PaCa-2. Kind of assay: Viability assay with MIA PaCa-2. It is filed as cell-based. As to conditions: MIA PaCa-2, viability assay per Example 57. The protocol:
as §1, §2, §3
A viability assay with MIA PaCa-2 (Epithelial pancreas tissue; carcinoma) was performed with compounds listed in Table 15, according to the procedures described in Example 57.

pEC50: −log10 of the molar value. Counter-ions that a name gives are not always drawn.

Turning to `NC1(C(=O)NCCCn2cc(-c3ccc(OC(F)(F)F)cc3)c3cc(CN4CC5CCC(C4)N5Cc4c(Cl)cccc4Cl)ccc32)CCNCC1` [C86; Formic acid], the pEC50 in assay [1] and in assay [2] was at least 5.30 throughout.
Consider `NC1(C(=O)NCCCn2cc(-c3ccc(OC(F)(F)F)cc3)c3cc(CN4CCCC5(CCN(Cc6c(Cl)cccc6Cl)CC5)C4)ccc32)CCNCC1` [C68; Formic acid], for which the pEC50 in assay [1] and in assay [2] was at least 5.30 in each case.
`NC1(C(=O)NCCCn2cc(-c3ccc(OC(F)(F)F)cc3)c3cc(CN4CCN(Cc5c(Cl)cccc5Cl)CC4)cnc32)CCNCC1` [C174; HCl]: the pEC50 in assay [1] and in assay [2] was at least 5.30 each time.
Consider `NCCCn1cc(-c2ccc(OC(F)(F)F)cc2)c2cc(CN3CCN(Cc4c(Cl)cccc4Cl)CC3)cnc21` [C177; HCl], for which the negative logarithm of the EC50 (pEC50) in assay [1] and in assay [2] was at least 5.30 in each case.
In the case of `NC1(C(=O)NCCCn2cc(-c3ccc(OC(F)(F)F)cc3)c3cc(CN4CC5CN(Cc6c(Cl)cccc6Cl)CC5C4)ccc32)CCNCC1` (stereo not shown) [C70; HCl], the negative-log EC50 (pEC50) in assay [1] and in assay [2] was at least 5.30 in each case.
For `NC1(C(=O)NCCCn2cc(-c3ccc(OC(F)(F)F)cc3)c3cc(CN4CC5CCC4CN5Cc4c(Cl)cccc4Cl)ccc32)CCNCC1` (stereo not shown) [C69; HCl], the negative logarithm of the EC50 (pEC50) in assay [1] and in assay [2] was at least 5.30 throughout.
On to `N#Cc1ccccc1CN1CCN(Cc2ccc3c(c2)c(-c2ccc(OC(F)(F)F)cc2)cn3CCCNC(=O)C2(N)CCNCC2)CC1` [C66; HCl], for which the negative-log EC50 (pEC50) in assay [1] and in assay [2] was at least 5.30 throughout.
As to `O=C(NCCCn1cc(-c2ccc(OC(F)(F)F)cc2)c2cc(CN3CCN(Cc4c(Cl)cccc4Cl)CC3)ccc21)C1(NCc2cccnc2-c2cccc(Cl)c2)CCNCC1` [C114; HCl], the negative logarithm of the EC50 (pEC50) in assay [1] and in assay [2] was at least 5.30 each time.
For `COc1cc(CN2CCC3(CC2)CCN(Cc2ccc4c(c2)c(-c2ccc(OC(F)(F)F)cc2)cn4CCCN)C3)cc(OC)c1` [C308; HCl], the pEC50 in assay [1] and in assay [2] was at least 5.30 each time.
For `CC(C)(C)OC(=O)NCCCc1cn(-c2ccc(OC(F)(F)F)cc2)c2cc(CN3CCN(Cc4c(Cl)cccc4Cl)CC3)ccc12` [C88; Formic acid], the pEC50 in assay [1] and in assay [2] was below 4.52 each time.
Consider `NC1(C(=O)NCCCn2cc(-c3ccc(OC(F)(F)F)cc3)c3cc(CN4CCN(Cc5ccccc5OC(F)(F)F)CC4)ccc32)CCNCC1` [C58; Formic acid], for which the pEC50 in assay [1] and in assay [2] was at least 5.30 throughout.
Regarding `NCCCn1cc(-c2ccc(OC(F)(F)F)cc2CN)c2cc(CN3CCN(Cc4ccc5c(c4)OCO5)CC3)ccc21` [C302; HCl], the pEC50 in assay [1] and in assay [2] was at least 5.30 in each case.
For `CC(C)(C)OC(=O)N1CCC(N)(C(=O)NCCCc2cn(-c3ccc(OC(F)(F)F)cc3)c3cc(CN4CCN(Cc5c(Cl)cccc5Cl)CC4)ccc23)CC1` [C73; Formic acid], the pEC50 in assay [1] and in assay [2] was at least 5.30 throughout.
For `NCCCn1cc(-c2ccc(OC(F)(F)F)cc2CN)c2cc(CN3CCN(Cc4ccc5c(c4)OCCO5)CC3)ccc21` [C303; HCl], the pEC50 in assay [1] and in assay [2] was at least 5.30 in each case.
For the molecule `Cc1ccccc1CN1CCN(Cc2ccc3c(c2)c(-c2ccc(OC(F)(F)F)cc2)cn3CCCNC(=O)C2(N)CCNCC2)CC1` [C71; HCl], the pEC50 in assay [1] and in assay [2] was at least 5.30 throughout.
As to `NC1(C(=O)NCCCn2cc(-c3ccc(OC(F)(F)F)cc3)c3cc(CN4CCC5(CCN(Cc6c(Cl)cccc6Cl)CC5)C4)ccc32)CCNCC1` [C61; HCl], the pEC50 in assay [1] and in assay [2] was at least 5.30 each time.
On to `NCCCn1cc(-c2ccc(OC(F)(F)F)cc2CN)c2cc(CN3CCN(Cc4cccc5c4OCO5)CC3)ccc21` [C304; HCl], for which the negative logarithm of the EC50 (pEC50) in assay [1] and in assay [2] was at least 5.30 throughout.
Turning to `NC1(C(=O)NCCCn2cc(-c3ccc(OC(F)(F)F)cc3)c3cc(CN4CCN(Cc5ccccc5C(F)(F)F)CC4)ccc32)CCNCC1` [C63; HCl], the pEC50 in assay [1] and in assay [2] was at least 5.30 in each case.
In the case of `O=C(NCCCn1cc(-c2ccc(OC(F)(F)F)cc2)c2cc(CN3CCN(Cc4c(Cl)cccc4Cl)CC3)ccc21)C1CNCCN1` (stereo not shown) [C90; HCl], the pEC50 in assay [1] and in assay [2] was at least 5.30 throughout.
On to `NC1(C(=O)NCCCn2cc(-c3ccc(OC(F)(F)F)cc3)c3cc(CN4CC5(CCN(Cc6c(Cl)cccc6Cl)CC5)C4)ccc32)CCNCC1` [C65; HCl], for which the negative logarithm of the EC50 (pEC50) in assay [1] and in assay [2] was at least 5.30 in each case.
In the case of `O=C(NCCCc1cn(-c2ccc(OC(F)(F)F)cc2)c2cc(CN3CCN(Cc4c(Cl)cccc4Cl)CC3)ccc12)C1CNCCN1` (stereo not shown) [C74; HCl], the negative-log EC50 (pEC50) in assay [1] and in assay [2] was at least 5.30 throughout.
Turning to `NCCCc1cn(-c2ccc(OC(F)(F)F)cc2)c2cc(CN3CCN(Cc4c(Cl)cccc4Cl)CC3)ccc12` [C87; Formic acid], the negative logarithm of the EC50 (pEC50) in assay [1] and in assay [2] was at least 5.30 throughout.
Take `NC1(C(=O)NCCCn2cc(-c3ccc(OC(F)(F)F)cc3)c3cc(CN4CC5C(C4)C5NCc4c(Cl)cccc4Cl)ccc32)CCNCC1` (stereo not shown) [C85; HCl]: the pEC50 in assay [1] and in assay [2] was at least 5.30 each time.
On to `NCCCn1cc(-c2ccccc2CCN)c2cc(CN3CCN(Cc4ccccc4Cl)CC3)ccc21` [C131, HCl], for which the pEC50 in assay [1] and in assay [2] was at least 5.30 each time.
Take `NC1(C(=O)NCCCn2cc(-c3ccc(OC(F)(F)F)cc3)c3cc(CN4CCC5(CC4)CN(Cc4c(Cl)cccc4Cl)C5)ccc32)CCNCC1` [C76; HCl]: the pEC50 (in general, −log10 of the EC50, conventionally taken in molar units) is 5.00 to 5.30 in assay [1] and at least 5.30 in assay [2].
`NC1(C(=O)NCCCn2cc(-c3ccc(OC(F)(F)F)cc3)c3cc(CN4CCN(Cc5ccccc5Cl)CC4)ccc32)CCNCC1` [C62; HCl]: the pEC50 in assay [1] and in assay [2] was at least 5.30 in each case.
On to `COc1ccc(CN2CCN(Cc3ccc4c(c3)c(-c3ccc(OC(F)(F)F)cc3CN)cn4CCCN)CC2)c(Cl)c1` [C305; HCl], for which the pEC50 in assay [1] and in assay [2] was at least 5.30 in each case.
In the case of `COc1cccc(CN2CCC3(CC2)CCN(Cc2ccc4c(c2)c(-c2ccc(OC(F)(F)F)cc2)cn4CCCN)C3)c1` [C309; HCl], the pEC50 in assay [1] and in assay [2] was at least 5.30 each time.
With `NC1(C(=O)NCCCn2cc(-c3ccc(OC(F)(F)F)cc3)c3cc(CN4CCN(Cc5ccccc5)CC4)ccc32)CCNCC1` [C72; HCl], the negative logarithm of the EC50 (pEC50) in assay [1] and in assay [2] was at least 5.30 each time.
In the case of `NC1(C(=O)NCCCn2cc(-c3ccc(OC(F)(F)F)cc3)c3cc(CN4CCC5(CC4)CCN(Cc4c(Cl)cccc4Cl)CC5)ccc32)CCNCC1` [C67; Formic acid], the pEC50 in assay [1] and in assay [2] was at least 5.30 in each case.
`NC1(C(=O)NCCCc2cn(-c3ccc(OC(F)(F)F)cc3)c3cc(C(=O)N4CCN(Cc5c(Cl)cccc5Cl)CC4)ccc23)CCNCC1` [C80; HCl]: the negative-log EC50 (pEC50) in assay [1] and in assay [2] was at least 5.30 each time.
Turning to `NC1(C(=O)NCCCn2cc(-c3ccc(OC(F)(F)F)cc3)c3cc(CNC4C5CN(Cc6c(Cl)cccc6Cl)CC54)ccc32)CCNCC1` (stereo not shown) [C79; Formic acid], the negative logarithm of the EC50 (pEC50) in assay [1] and in assay [2] was at least 5.30 throughout.
`NC1(C(=O)NCCn2cc(-c3ccc(OC(F)(F)F)cc3)c3cc(CN4CCN(Cc5c(Cl)cccc5Cl)CC4)ccc32)CCNCC1` [C64; HCl]: the negative-log EC50 (pEC50) in assay [1] and in assay [2] was at least 5.30 throughout.
For `O=C(NCCCn1cc(-c2ccc(OC(F)(F)F)cc2)c2cc(CN3CCN(Cc4c(Cl)cccc4Cl)CC3)cnc21)C1CNCCN1` (stereo not shown) [C176; HCl], the pEC50 in assay [1] and in assay [2] was at least 5.30 throughout.
Turning to `COc1cccc(CN2CCN(Cc3ccc4c(c3)c(-c3ccc(OC(F)(F)F)cc3CN)cn4CCCN)CC2)c1Cl` [C306; HCl], the pEC50 in assay [1] and in assay [2] was at least 5.30 throughout.
For `NC1(C(=O)NCCCc2cn(-c3ccc(OC(F)(F)F)cc3)c3cc(CN4CCN(Cc5c(Cl)cccc5Cl)CC4)ccc23)CCNCC1` [C75; HCl], the pEC50 in assay [1] and in assay [2] was at least 5.30 in each case.
For `NC1(C(=O)NCCCn2cc(-c3ccc(OC(F)(F)F)cc3)c3cc(CN4CCCN(Cc5c(Cl)cccc5Cl)CC4)ccc32)CCNCC1` [C78; HCl], the negative logarithm of the EC50 (pEC50) in assay [1] and in assay [2] was at least 5.30 throughout.
With `COc1ccccc1CN1CCN(Cc2ccc3c(c2)c(-c2ccc(OC(F)(F)F)cc2)cn3CCCNC(=O)C2(N)CCNCC2)CC1` [C59; Formic acid], the pEC50 in assay [1] and in assay [2] was at least 5.30 in each case.
With `CC(C)(C)OC(=O)N1CCC(N)(C(=O)NCCCn2cc(-c3ccc(OC(F)(F)F)cc3)c3cc(CN4CCN(Cc5c(Cl)cccc5Cl)CC4)cnc32)CC1` [C175; Formic Acid], the pEC50 in assay [1] was at least 5.30; in assay [2], 5.00 to 5.30.
Taken in the same sequence, the figures for `NCCCn1cc(-c2ccccc2CN)c2cc(CN3CCN(Cc4c(Cl)cccc4Cl)CC3)ccc21` [C161; HCl] were at least 5.30 and at least 5.30.
Taken in the same sequence, the figures for `COc1ccc(CN2CCNC(C(=O)NCCCn3cc(-c4ccc(OC(F)(F)F)cc4)c4cc(CN5CCN(Cc6c(Cl)cccc6Cl)CC5)ccc43)C2)cc1OCc1ccc(Cl)c(Cl)c1` (stereo not shown) [C89; Formic acid] were 5.00 to 5.30 and 5.00 to 5.30.

(Values after patent US20170158702A1, “MULTIVALENT RAS BINDING COMPOUNDS” (KYRAS THERAPEUTICS, INC., priority 2015, published 2017).)
